Results as given in US10287267B2, “Isoquinolin-3-yl carboxamides and preparation and use thereof” (Samumed, LLC, priority 2016, dated 2019).
Like-named read-outs stand apart in the source and are kept apart here.

Assays:
IL-6 = IL-6 inhibition in LPS-stimulated human peripheral blood mononuclear cells (HTRF); type: cell-based; conditions: Homo sapiens, PBMC; for EC50: Table 9, huPBMCs, LPS 50 ng/mL, 22 hours, dose-response starting from 10 μM;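 as to all read-outs here: IL-6 detected by HTRF with an XL665- and Cryptate-labelled anti-IL-6 antibody pair, samples run in duplicate, EC50 obtained from a four-parameter Levenberg-Marquardt curve fit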
Protocol: After 22 hour incubation, a mixture of anti-IL6 XL665 and anti-IL-6 Cryptate diluted in reconstitution buffer (Catalog #62IL6PEC, Cisbio Inc., Bedford, Mass.) was added to each well. […] All samples were processed in duplicate. […] EC50 was determined using software generated by Dotmatics Limited (Windhill Bishops Stortford Herts, UK) using the Levenberg-Marquardt 4 parameter fitting procedure with finite different gradients.

[1] = target: recombinant DYRK1A kinase (Homo sapiens (Human), UniProt Q13627); experiment: DYRK1A kinase assay (Ser/Thr 18 peptide Z-lyte FRET); type: biochemical; conditions: 30 μM ATP, 1 h room temperature;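 also: Read-out is the coumarin to fluorescein emission ratio, referenced to unphosphorylated (0%) and phosphorylated (100%) Ser/Thr 18 peptide controls, values from dose-response curves by non-linear regression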
recombinant GSK3β kinase = recombinant GSK3β kinase (Homo sapiens (Human), UniProt P49841); experiment: GSK3β kinase assay (Ser/Thr 09 peptide Z-lyte FRET); type: biochemical; conditions: 46 μM ATP, 1 h room temperature;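 also: kinase activity read as coumarin to fluorescein emission ratio, 11-point threefold dilutions from 10 µM to 0.0003 µM in duplicate, unphosphorylated and phosphorylated peptide as 0% and 100% controls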
[2] = system: SW480 colon carcinoma cells; experiment: Cell viability assay (CellTiter-Glo); type: cell-based, human; conditions: Homo sapiens; for EC50: 96 h, SW480 cells, CellTiter-Glo, four days incubation; for inhibition at 10 µM: SW480, read-out: percent inhibition at 10 μM
[3] = system: Tau phosphorylation at Ser396 (pSer396); experiment: Tau phosphorylation assay (pSer396 ELISA / western blot) in SH-SY5Y cells; type: cell-based, human; conditions: SH-SY5Y cells;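 also: EC50 for reduction of Tau pSer396 in lysed cells, measured by colorimetric ELISA or chemiluminescent western blot, both using the same pSer396 antibody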
[4] = system: Wnt pathway (Sp5-Luc reporter, TCF/LEF binding sites) in SW480 colon carcinoma cells; experiment: Screening assay for Wnt activity: Sp5-Luc reporter gene assay; type: cell-based, human; conditions: Homo sapiens; for EC50: Sp5-Luc reporter, SW480 cells, 36 to 48 hours; for inhibition at 10 µM: SW480, read-out: percent inhibition at 10 μM;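 as to all read-outs here: firefly luciferase luminescence read in stably transduced SW480 cells carrying the Sp5 promoter reporter with eight TCF/LEF sites, compounds given in 0.1% DMSO final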
Protocol: The screening assay for Wnt activity is described as follows.
Following incubation, 15 μl of BriteLite Plus luminescence reagent (Perkin Elmer) was added to each well of the 384-well assay plates. The plates were placed on an orbital shaker for 2 min and then luminescence was quantified using the Envision (Perkin Elmer) plate reader.

[5] = system: α-smooth muscle actin (αSMA) positive LL29 cells; experiment: Inhibition of fibrotic process: αSMA in TGF-β1 treated primary human fibroblasts from IPF patients; type: cell-based; conditions: Homo sapiens, Fibroblast, 96 h; Table 8; LL29 fibroblasts from IPF patients, TGF-β1 20 ng/mL, 4 days; dose-response 10 μM to 0.94 nM;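 also: controls were TGF-β1 stimulated wells with DMSO vehicle (positive) and cells given DMSO alone (negative), cultured in F12 medium with 1% fetal bovine serum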
[6] = Homo sapiens, overnight (16-18 h) exposure, read-out: pSer396 Tau EC50

Sequence of recombinant GSK3β kinase (P49841 whole entry): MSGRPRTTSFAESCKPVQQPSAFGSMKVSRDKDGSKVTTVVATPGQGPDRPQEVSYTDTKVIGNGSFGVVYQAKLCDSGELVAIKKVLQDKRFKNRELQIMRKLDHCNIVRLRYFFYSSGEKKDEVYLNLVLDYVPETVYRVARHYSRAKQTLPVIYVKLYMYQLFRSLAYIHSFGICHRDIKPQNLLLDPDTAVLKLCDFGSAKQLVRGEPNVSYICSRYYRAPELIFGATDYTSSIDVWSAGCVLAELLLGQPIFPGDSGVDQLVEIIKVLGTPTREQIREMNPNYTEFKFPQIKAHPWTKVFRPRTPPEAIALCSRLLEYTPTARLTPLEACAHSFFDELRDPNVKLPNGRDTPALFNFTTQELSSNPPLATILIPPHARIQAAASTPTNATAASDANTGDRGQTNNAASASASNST

SMILES | EC50 (IL-6) [nM] | EC50 [1] [nM] | EC50 (recombinant GSK3β kinase) [nM] | EC50 [2] [nM] | EC50 [3, 6] [nM] | EC50 [4] [nM] | EC50 [5] [nM] | inhibition at 10 µM [2] [%] | inhibition at 10 µM [4] [%] | inhibition at 10 µM (IL-6; read-out: percent value in parentheses beside EC50 >10 μM) [%] | EC50 ([3]; control DYRK1A inhibitors, read-out: EC50 in the Tau assay) [nM]
CN(C)C1CCC(C(=O)Nc2cc3cc(-c4cnn(C)c4)ccc3cn2)CC1 (stereo in doubt) [Compound 1081, trans-4-(Dimethylamino)-N-(6-(1-methyl-1H-pyrazol-4-yl)isoquinolin-3-yl)cyclohexane-1-carboxamide] | 1100 | 2.2 | 82 | 4650 | 470 | 2730 |  |  |  |  | 
Cc1ncc(-c2ccc3cnc(NC(=O)C4CCCCC4)cc3c2)n1C [Compound 120, N-(6-(1,2-Dimethyl-1H-imidazol-5-yl)isoquinolin-3-yl) cyclohexanecarboxamide] | 2290 | 4.8 | 138 | 2490 |  | 2200 | 2130 |  |  |  | 
O=C(CN1CCCC1)Nc1cc2cc(-c3cn[nH]c3C(F)(F)F)ccc2cn1 [Compound 287, 2-(Pyrrolidin-1-yl)-N-(6-(5-(trifluoromethyl)-1H-pyrazol-4-yl)isoquinolin-3-yl)acetamide] | 9580 | 5140 | 9840 | > 10000 |  | 7330 | 2350 | 47.8 |  |  | 
Cn1cc(-c2ccc3cnc(NC(=O)C4CCN(S(C)(=O)=O)CC4)cc3c2)cn1 [Compound 330, N-(6-(1-Methyl-1H-pyrazol-4-yl)isoquinolin-3-yl)-1-(methylsulfonyl) piperidine-4-carboxamide] | 1160 |  |  | 6780 | 246 | 449 | 20 |  |  |  | 
Cn1cc(-c2ccc3cnc(NC(=O)N4CN5CCC[C@@H]5C4=O)cc3c2)cn1 [Compound 362, (R)—N-(6-(1-Methyl-1H-pyrazol-4-yl)isoquinolin-3-yl)-1-oxotetrahydro-1H-pyrrolo[1,2-c]imidazole-2(3H)-carboxamide] | 9150 | 132 | 1100 | 5480 |  | 951 | 782 |  |  |  | 
CC(F)(F)CN1CCC(C(=O)Nc2cc3cc(-c4cncs4)ccc3cn2)CC1 [Compound 731, 1-(2,2-Difluoropropyl)-N-(6-(thiazol-5-yl)isoquinolin-3-yl)piperidine-4-carboxamide] | 1180 | 1.4 | 42 | 1100 | 450 | 3050 |  |  |  |  | 
Cn1ncc(-c2ccc3cnc(NC(=O)[C@H]4CC[C@H](CO)CC4)cc3c2)c1CN1CCCCC1 [Compound 798, trans-4-(Hydroxymethyl)-N-(6-(1-methyl-5-(piperidin-1-ylmethyl)-1H-pyrazol-4-yl)isoquinolin-3-yl)cyclohexane-1-carboxamide] | 1270 | 3.1 | 31 | 613 | 320 | 594 |  |  |  |  | 
Cn1ncc(-c2ccc3cnc(NC(=O)C4CCOCC4)cc3c2)c1CN1CCCCC1 [Compound 839, N-(6-(1-Methyl-5-(piperidin-1-ylmethyl)-1H-pyrazol-4-yl)isoquinolin-3-yl) tetrahydro-2H-pyran-4-carboxamide] | 3280 | 3.8 | 17 | 1180 | 254 | 776 |  |  |  |  | 
Cc1nnc(-c2ccc3cnc(NC(=O)[C@H]4CC[C@H](CO)CC4)cc3c2)s1 [Compound 888, trans-4-(Hydroxymethyl)-N-(6-(5-methyl-1,3,4-thiadiazol-2-yl)isoquinolin-3-yl)cyclohexane-1-carboxamide] | 3940 | 1.4 | 8 | 2470 | 195 | 1040 |  |  |  |  | 
Cc1nnc(-c2ccc3cnc(NC(=O)CN4CCOC[C@H]4C)cc3c2)s1 [Compound 953, (R)—N-(6-(5-Methyl-1,3,4-thiadiazol-2-yl)isoquinolin-3-yl)-2-(3-methylmorpholino)acetamide] |  | 16.8 | 23 | > 10000 | 398 | > 10000 |  | 40.3 | 48.7 |  | 
CN1CCC(n2cc(-c3ccc4cnc(NC(=O)C5CCCCC5)cc4c3)cn2)CC1 [Compound 969, N-(6-(1-(1-Methylpiperidin-4-yl)-1H-pyrazol-4-yl)isoquinolin-3-yl) cyclohexanecarboxamide] | 9120 | 50 | 7610 | 2880 |  | 3930 | 935 |  |  |  | 
CC#CC(=O)Nc1cc2cc(-c3cnn(C)c3)ccc2cn1 [Compound 1026, N-(6-(1-Methyl-1H-pyrazol-4-yl)isoquinolin-3-yl)but-2-ynamide] | 9520 | 5 | 508 | 554 |  | 513 | 2260 |  |  |  | 
Cn1cc(-c2ccc3cnc(NC(=O)[C@H]4CC[C@H](C(=O)O)CC4)cc3c2)cn1 [Compound 1032, trans-4-((6-(1-Methyl-1H-pyrazol-4-yl)isoquinolin-3-yl)carbamoyl) cyclohexane-1-carboxylic acid] | 3320 | 1.2 | 72 | > 10000 |  | > 10000 |  | 34.7 | 27.4 |  | 
[2H]C([2H])(C(=O)Nc1cc2cc(-c3nnc(C)s3)ccc2cn1)N1CCOCC1 [Compound 1051, N-(6-(5-Methyl-1,3,4-thiadiazol-2-yl)isoquinolin-3-yl)-2-morpholinoacetamide-2,2-d2] |  | 14.6 | 9 | > 10000 | 147 | 480 |  | 22.5 |  |  | 
[2H]C1([2H])OC([2H])([2H])C([2H])([2H])N(CC(=O)Nc2cc3cc(-c4nnc(C)s4)ccc3cn2)C1([2H])[2H] [Compound 1052, N-(6-(5-Methyl-1,3,4-thiadiazol-2-yl)isoquinolin-3-yl)-2-(morpholino-d8) acetamide] |  | 18 | 11 | > 10000 | 254 | 2280 |  | 40.7 |  |  | 
CC(C)CN1CCC(F)(C(=O)Nc2cc3cc(-n4nccn4)ccc3cn2)CC1 [Compound 1073, N-(6-(2H-1,2,3-triazol-2-yl)isoquinolin-3-yl)-4-fluoro-1-isobutylpiperidine-4-carboxamide] | > 10000 | 1520 | > 10000 | > 10000 |  | > 10000 | > 10000 | 8.5 | 5.9 | 3.3 | 
Cn1cc(-c2ccc3cnc(NC(=O)C45CC(CO)(C4)C5)cc3c2)cn1 [Compound 1083, 3-(Hydroxymethyl)-N-(6-(1-methyl-1H-pyrazol-4-yl)isoquinolin-3-yl) bicyclo[1.1.1]pentane-1-carboxamide] | 8730 | 4.2 | 914 | 901 |  | 8210 |  |  |  |  | 
COC(=O)[C@H]1CC[C@H](C(=O)Nc2cc3cc(-c4cnn(C)c4)ccc3cn2)CC1 [Compound 1084, Methyl trans-4-((6-(1-methyl-1H-pyrazol-4-yl)isoquinolin-3-yl)carbamoyl) cyclohexane-1-carboxylate] | 752 | 1.7 | 40 | 3670 |  | 3410 |  |  |  |  | 
[2H]c1nc(NC(=O)C2CCNCC2)cc2cc(-c3cnn(C)c3)ccc12 [Compound 1085, N-(6-(1-Methyl-1H-pyrazol-4-yl)isoquinolin-3-yl-1-d)piperidine-4-carboxamide] | 453 | 2.4 | 83 | 1240 |  | 2200 |  |  |  |  | 
CN1CCN(C(=O)[C@H]2CC[C@H](C(=O)Nc3cc4cc(-c5cnn(C)c5)ccc4cn3)CC2)CC1 [Compound 1091, trans-N-(6-(1-Methyl-1H-pyrazol-4-yl)isoquinolin-3-yl)-4-(4-methylpiperazine-1-carbonyl)cyclohexane-1-carboxamide] |  | 1.4 | 69 | 1250 | 869 | 2950 |  |  |  |  | 
CC(C)CN1CCC(C(=O)Nc2cc3cc(-c4nnnn4C)ccc3cn2)CC1 [Compound 1092, 1-Isobutyl-N-(6-(1-methyl-1H-tetrazol-5-yl)isoquinolin-3-yl)piperidine-4-carboxamide] |  | 62.7 | 132 | 2980 | 131 | 247 |  |  |  |  | 
[2H]c1nc(NC(=O)CN2CCCC2)cc2cc(-c3cnn(C)c3)ccc12 [Compound 1093, N-(6-(1-Methyl-1H-pyrazol-4-yl)isoquinolin-3-yl-1-d)-2-(pyrrolidin-1-yl) acetamide] |  | 11.7 | 47 |  | 422 | 1780 |  |  |  |  | 
CCN1/C(=C/C(C)=O)Sc2ccc(O)cc21 [Indy, reference compound] |  |  |  |  |  |  |  |  |  |  | > 10000
